Measured values: patent US9469645B2, “Compounds and compositions for the treatment of parasitic diseases” (Novartis AG, priority 2009, dated 2016)

Assays:
W2 strain = assay: parasite proliferation assay in infected red blood cells (SYBR Green I), W2 strain; type: cell-based; details: Erythrocyte
Source text: Compounds of the invention can be assayed to measure their capacity to inhibit proliferation of parasitemia in infected red blood cells. The proliferation is quantified by the addition of SYBR Green I (INVITROGEN)® dye which has a high affinity for double stranded DNA.

3D7 P. falciparum strain = assay: parasite proliferation assay in infected red blood cells (SYBR Green I); type: cell-based, Plasmodium falciparum; details: Plasmodium falciparum, 3D7, Erythrocyte, 3D7 strain; read-out: EC50 3D7 strain
Outline: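 P. falciparum 3D7 grown in O+ human erythrocytes to 3–8% parasitemia and exposed to compounds. Proliferation read as the increase in parasite DNA. Detection used SYBR Green I in saponin/triton-X/EDTA lysis buffer, with overnight lysis at room temperature.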

| SMILES | EC50 (W2 strain) [nM] | EC50 (3D7 P. falciparum strain) [nM] | EC50 (W2 strain; Plasmodium falciparum) [nM] |
| --- | --- | --- | --- |
| Cc1ccc(Nc2c(-c3ccc(F)c(F)c3)nc3n2CCN(C(=O)[C@H](O)C(C)C)C3)cc1 [Compound 391] | 7 | 10 | – |
| CCC[C@H](NC)C(=O)N1CCn2c(nc(-c3ccc(F)cc3)c2Nc2ccc(C)cc2)C1 [Compound 392] | 39 | 30 | – |
| CC(C)C[C@@H](N)C(=O)N1CCn2c(nc(-c3ccc(F)cc3)c2Nc2ccc(Cl)c(F)c2)C1 [Compound 394] | 43 | 50 | – |
| Cc1ccc(Nc2c(-c3ccc(F)cc3F)nc3n2CCN(C(=O)C(C)(C)N)C3)cc1 [Compound 395] | 246 | 440 | – |
| Cc1ccc(Nc2c(-c3ccc(F)c(F)c3)nc3n2CCN(C(=O)[C@@H](N)C(C)C)C3)cc1 [Compound 396] | 22 | 30 | – |
| Cc1ccc(Nc2c(-c3cccc(Cl)c3)nc3n2CCN(C(=O)C(C)(C)N)C3)cc1 [Compound 397] | 1670 | 2450 | – |
| Cc1ccc(Nc2c(-c3ccc(F)cc3)nc3n2CC(=O)NC3(C)C)cc1F [Compound 598] | – | 40 | 74 |
| Cc1ccc(Nc2c(-c3cccc(F)c3)nc3n2C(C)(C)CN(C(=O)[C@@H](O)Cc2ccccc2)C3)cc1 [Compound 599] | – | 120 | 134 |
| Cc1cc(Nc2c(-c3ccc(F)cc3)nc3n2CCN(C(=O)CN)C3(C)C)nn1C [Compound 600] | – | 70 | 50 |
| CCn1nccc1Nc1c(-c2ccc(F)cc2)nc2n1CCN(C(=O)CN)C2(C)C [Compound 601] | – | 3960 | 4120 |
| CC(C)[C@@H]1c2nc(-c3ccc(F)cc3)c(Nc3ccc(Cl)c(F)c3)n2CCN1C(=O)CN [Compound 602] | – | 170 | 204 |
| Cc1ccc(Nc2c(-c3cccc(F)c3)nc3n2CC(=O)NC3(C)C)cc1F [Compound 603] | – | 50 | 73 |
| Cc1ccc(Nc2c(-c3cccc(F)c3)nc3n2CC(=O)NC3(C)C)cc1Cl [Compound 604] | – | 40 | 49 |
| CC1(C)NC(=O)Cn2c1nc(-c1cccc(F)c1)c2Nc1ccc(Cl)c(F)c1 [Compound 605] | – | 40 | 57 |
| CN1CCn2c(nc(-c3ccc(F)cc3)c2Nc2ccc(F)cc2)C1(C)C [Compound 606] | – | 20 | 28 |
| CN1CCn2c(nc(-c3ccc(F)cc3)c2Nc2ccc(Cl)cc2)C1(C)C [Compound 607] | – | 30 | 48 |
| CN1Cc2nc(-c3ccc(F)cc3)c(Nc3ccc(Cl)cc3)n2C(C)(C)C1 [Compound 608] | – | 6910 | 5560 |
| CN1Cc2nc(-c3ccc(F)cc3)c(Nc3ccc(Cl)c(F)c3)n2C(C)(C)C1 [Compound 609] | – | 7020 | 4930 |
| Cc1cc(Nc2c(-c3ccc(F)cc3)nc3n2C(C)(C)CN(C)C3)ccc1Cl [Compound 610] | – | 6250 | 4900 |
| CN1Cc2nc(-c3ccc(F)cc3)c(Nc3ccc(F)c(F)c3)n2C(C)(C)C1 [Compound 611] | – | 7670 | 5760 |

| SMILES | EC50 (W2 strain) [nM] | EC50 (3D7 P. falciparum strain) [nM] | EC50 (W2 strain; Plasmodium falciparum) [nM] |
| --- | --- | --- | --- |
| Cc1ccc(Nc2c(-c3ccc(F)cc3)nc3n2C(C)(C)CN(C)C3)cc1C#N [Compound 612] | – | 6900 | 6080 |
| COc1ccc(CN2Cc3nc(-c4ccc(F)cc4)c(Nc4ccc(Cl)c(F)c4)n3C(C)(C)C2=O)cc1 [Compound 613] | – | 6270 | 5710 |
| COc1ccc(CN2Cc3nc(-c4ccc(F)cc4)c(Nc4ccc(Cl)c(C)c4)n3C(C)(C)C2=O)cc1 [Compound 614] | – | 5020 | 4520 |
| CN1Cc2nc(-c3ccc(F)cc3)c(Nc3ccc(Cl)c(F)c3)n2C(C)(C)C1=O [Compound 615] | – | 6410 | 5610 |
| Cc1cc(Nc2c(-c3ccc(F)cc3)nc3n2C(C)(C)C(=O)N(C)C3)ccc1Cl [Compound 616] | – | 5720 | 4560 |
| Cc1cc(Nc2c(-c3ccc(F)cc3)nc3n2C(C)(C)C(=O)N(C)C3)ccc1F [Compound 617] | – | 6330 | 6880 |
| CC1(C)C(=O)NCc2nc(-c3ccc(F)cc3)c(Nc3ccc(Cl)c(F)c3)n21 [Compound 618] | – | 2130 | 2890 |
| Cc1cc(Nc2c(-c3ccc(F)cc3)nc3n2C(C)(C)C(=O)NC3)ccc1Cl [Compound 619] | – | 570 | 713 |
| CC1(C)CN(C(=O)CN)Cc2nc(-c3cccc(F)c3)c(Nc3ccc(Cl)cc3)n21 [Compound 620] | – | 40 | 41 |
| CC1(C)CN(C(=O)CN)Cc2nc(-c3cccc(F)c3)c(Nc3ccc(F)cc3)n21 [Compound 621] | – | 40 | 45 |
| CC1(C)CN(C(=O)CN)Cc2nc(-c3cccc(F)c3)c(Nc3ccc(F)c(F)c3)n21 [Compound 622] | – | 100 | 121 |
| CC1(C)CN(C(=O)CN)Cc2nc(-c3cccc(F)c3)c(Nc3ccc(Cl)c(F)c3)n21 [Compound 623] | – | 30 | 32 |
| CC1(C)CN(C(=O)CN)Cc2nc(-c3cccc(F)c3)c(Nc3ccc(F)c(Cl)c3)n21 [Compound 624] | – | 100 | 167 |
| Cc1cc(Nc2c(-c3cccc(F)c3)nc3n2C(C)(C)CN(C(=O)CN)C3)ccc1F [Compound 625] | – | 170 | 194 |
| Cc1cc(Nc2c(-c3cccc(F)c3)nc3n2C(C)(C)CN(C(=O)CN)C3)ccc1Cl [Compound 626] | – | 20 | 17 |
| CN1CCn2c(nc(-c3ccc(F)cc3)c2Nc2ccc(F)c(Cl)c2)C1(C)C [Compound 627] | – | 170 | 194 |
| Cc1cc(Nc2c(-c3ccc(F)cc3)nc3n2CCN(C(=O)C(C)(C)N)C3)ccc1F [Compound 628] | – | 33 | 40 |
| Cc1cc(Nc2c(-c3ccc(F)cc3)nc3n2CCN(C(=O)C(C)(C)N)C3)ccc1Cl [Compound 629] | – | 17 | 23 |
| Cc1ccc(Nc2c(-c3ccc(F)cc3)nc3n2CCN(C(=O)C(C)(C)N)C3)cc1C#N [Compound 630] | – | 35 | 85 |
| Cc1ccc(Nc2c(-c3ccc(F)cc3)nc3n2CCN(C(=O)C(C)(C)N)C3)cc1F [Compound 631] | – | 49 | 62 |

| SMILES | EC50 (W2 strain) [nM] | EC50 (3D7 P. falciparum strain) [nM] | EC50 (W2 strain; Plasmodium falciparum) [nM] |
| --- | --- | --- | --- |
| Cc1ccc(Nc2c(-c3ccc(F)cc3)nc3n2CCN(C(=O)C(C)(C)N)C3)cc1Cl [Compound 632] | – | 15 | 16 |
| CC(C)(N)C(=O)N1CCn2c(nc(-c3ccc(F)cc3)c2Nc2ccc(C(F)(F)F)c(Cl)c2)C1 [Compound 633] | – | 528 | 331 |
| CC(C)(N)C(=O)N1CCn2c(nc(-c3ccc(F)cc3)c2Nc2ccc(F)c(C(F)(F)F)c2)C1 [Compound 634] | – | 467 | 447 |
| CC(C)(N)C(=O)N1CCn2c(nc(-c3ccc(F)cc3)c2Nc2ccc(C#N)c(C(F)(F)F)c2)C1 [Compound 635] | – | 940 | 1760 |
| CC(C)(N)C(=O)N1CCn2c(nc(-c3ccc(F)cc3)c2Nc2ccc(F)c(C#N)c2)C1 [Compound 636] | – | 210 | 183 |
| Cc1ccc(Nc2c(-c3ccc(F)cc3)nc3n2CCN(C(=O)C(C)(C)N)C3)cc1C [Compound 637] | – | 27 | 26 |
| Cc1cccc(Nc2c(-c3ccc(F)cc3)nc3n2CCN(C(=O)C(C)(C)N)C3)c1 [Compound 638] | – | 65 | 68 |
| CC(C)(N)C(=O)N1CCn2c(nc(-c3ccc(F)cc3)c2Nc2cccc(Cl)c2)C1 [Compound 639] | – | 82 | 93 |
| CC(C)(N)C(=O)N1CCn2c(nc(-c3ccc(F)cc3)c2Nc2cccc(OC(F)(F)F)c2)C1 [Compound 640] | – | 3950 | 4510 |
| CCc1ccc(Nc2c(-c3ccc(F)cc3)nc3n2CCN(C(=O)C(C)(C)N)C3)cc1 [Compound 641] | – | 799 | 1280 |
| CC(C)(N)C(=O)N1CCn2c(nc(-c3ccc(F)cc3)c2Nc2ccc(OC(F)F)cc2)C1 [Compound 642] | – | 2010 | 2500 |
| CC(C)(N)C(=O)N1CCn2c(nc(-c3ccc(F)cc3)c2Nc2ccc(OC(F)(F)F)cc2)C1 [Compound 643] | – | 2800 | 2170 |
| CC(C)(N)C(=O)N1CCn2c(nc(-c3ccc(F)cc3)c2Nc2cc(Cl)cc(Cl)c2)C1 [Compound 644] | – | 310 | 490 |
| CC1(C)N=C2c3nc(-c4ccc(F)cc4)c(Nc4ccc(F)c(F)c4)n3CCN2C1=O [Compound 645, 8-(3,4-difluorophenylamino)-9-(4-fluorophenyl)-2,2-dimethyl-5,6-dihydrodiimidazo[1,2-a:2′,1′-c]pyrazin-3 (2H)-one] | – | 5130 | 7600 |
| CC1(C)NC2c3nc(-c4ccc(F)cc4)c(Nc4ccc(F)c(F)c4)n3CCN2C1=O (stereo not drawn) [Compound 646, 8-(3,4-difluorophenylamino)-9-(4-fluorophenyl)-2,2-dimethyl-1,2,5,6-tetrahydrodiimidazo[1,2-a:2′,1′-c]pyrazin-3(10bH)-one] | – | 5680 | 6130 |
| CC1(C)c2nc(-c3ccc(F)cc3)c(Nc3ccc(-c4ccccc4)cc3)n2CCN1C(=O)CN [Compound 647] | – | 279 | 250 |
| CCc1ccc(Nc2c(-c3ccc(F)cc3)nc3n2CCN(C(=O)CN)C3(C)C)cc1 [Compound 648] | – | 9 | 8 |
| CC1(C)c2nc(-c3ccc(F)cc3)c(Nc3ccc(OC(F)(F)F)cc3)n2CCN1C(=O)CN [Compound 649] | – | 24 | 18 |
| CC1(C)c2nc(-c3ccc(F)cc3)c(Nc3cccc(OC(F)(F)F)c3)n2CCN1C(=O)CN [Compound 650] | – | 12 | 9 |
| CC1(C)c2nc(-c3ccc(F)cc3)c(Nc3cccc(Cl)c3)n2CCN1C(=O)CN [Compound 651] | – | 8 | 5 |
